Like-named read-outs stand apart in the source and are kept apart here. Bounds are passed on as bounds.

The conditions of data set [1]: human, intravenous; cited from earlier work.
Data set [2] in a line: Plasma pharmacokinetics of co-administered DMT and DMT-d10 in male rats (IV bolus, oral gavage, inhalation). As to conditions: for time of highest plasma concentration (first time point taken): IV bolus 1 mg/kg each; for time of highest plasma concentration (first time point taken) / mean residence time (MRT) after inhalation compared to IV administration: male rats; for F (bioavailability), inhalation: inhalation 14.3 (DMT) + 15.5 (DMT-d10) mg/kg, calculated from dose normalized AUC0-1 mean values vs Group 4 IV; for mean residence time (MRT) after inhalation compared to IV administration: inhalation vs IV; for AUC0-1/dose: plasma.

The conditions of data set [3]: rats, intraperitoneal injection; cited from earlier work.
Data set [4] relates to head-twitch responses (HTRs). To be noted: 1 mg/kg, intraperitoneal, rats and mice; cited from earlier work.
For data set [5], the system named is human participants. To be noted: cited from earlier work.
Data set [6] is described as follows: Brain pharmacokinetics of co-administered DMT and DMT-d10 in male rats (IV bolus). The class given is in vivo, Sprague Dawley rats. As to conditions: for Brain Cmax: IV bolus 1 mg/kg each, co-dosed (Group 4). How it is done: Experimental Design. This was a single dose study with 4 treatment groups as outlined in Table 1.
Sampling collection. PK samples (0.3 mL) were collected from the jugular vein by venepuncture into tubes containing K2EDTA anticoagulant at the following sampling times: Group 1 (IV) and Group 2 (oral) serial plasma collection at 0.083, 0.25, 0.5, 1, 3, 8 and 24 hr postdose; Group 4 (IV) composite plasma and brain collection at 0.083, 0.25, 0.5 and 1 hr postdose; Group 6 (inhalation) serial plasma collection at 0.333, 0.533, 0.833, 1.333, 3.333, 8.333 and 24.333 after start of inhalation.
Brain samples: After extraction of whole brain from the cranium, brains were rinsed, patted dry, weighed, placed into tubes and frozen on dry ice. Thereafter, they were stored at −70 […] pending analysis.
Bioanalysis. Plasma and brain homogenates were analyzed for DMT and DMT-d10 using an established LC-MS/MS assay.) Pharmacokinetic parameters were determined from the DMT and DMT-d 10 plasma and brain concentration-time profiles using commercially available software (Phoenix® WinNonlin®).

For data set [7], the system named is neural oscillations. Description: Experiment 7: topographic pharmaco-EEG mapping of N2O+DMT (planned). As to conditions: healthy humans, following DMT administration.
The conditions of data set [8]: in vivo; cited from earlier work.
Data set [9] concerns Adult Male Laboratory Mice (C57B16/J). Description: Locomotor activity (distance travelled, Ethovision) in mice. As to conditions: DMT-d10 5.6 mg/kg s.c.; for Mean rank diff., total distance travelled: Dunn's multiple comparisons, Veh/Air vs. treatment, N2O 50% inhaled. The class given is in vivo.
The test system of data set [10] is bdnf. Briefly: RTqPCR gene expression in mouse left frontal cortex: bdnf. The class given is in vivo, mice (C57B16/J). To be noted: 60 min treatment + 60 min room air, DMT-d10 5.6 mg/kg s.c., N2O 50% inhaled.
Data set [11] has as its system fibroblast growth factor 2 (fgf2). Description: RTqPCR gene expression in mouse left frontal cortex: fgf2. To be noted: 60 min treatment + 60 min room air, DMT-d10 5.6 mg/kg s.c., N2O 50% inhaled.
The target of data set [12] is T1, serotonin 5-HT2A receptor (Mus musculus, UniProt P35363).
T1 construct: Mice were exposed to a medium dose of the 5-HT2A agonist DMT-d10; from tissue; host or cells: living adult male C57Bl6/J mice (in vivo behavioural assay)
Briefly: Head twitch response (HTR) in mice, DMT-d10 with or without N2O. As to conditions: DMT-d10 5.6 mg/kg s.c.; for head twitch responses (HTRs), result in words: mice, room air or N2O 50%, first 30 minutes; for Mean rank diff., total HTRs: Dunn's multiple comparisons, Veh/Air vs. treatment, N2O 50% inhaled. The format is in vivo, mice (C57B16/J). The protocol:
Experiment 1—Effect of N2O on the pharmacodynamic effects of DMT-d10. The dose-dependent behavioral effects of N2O on DMT-d10-induced head twitch response (HTR) in mice was determined.
Rationale: The head-twitch response (HTR) is a rapid side-to-side head movement that occurs in mice and rats after the serotonin 5-HT2A receptor is activated. The HTR is widely used as a behavioral assay for 5-HT2A activation and to probe for interactions between the 5-HT2A receptor and other transmitter systems (see Halberstadt, A. L. & Geyer, M. A. Characterization of the head-twitch response induced by hallucinogens in mice: detection of the behavior based on the dynamics of head movement. Psychopharmacology (Berl) 227, 10.1007/s00213-013-3006-z (2013); Canal, C. E. & Morgan, D. Head-twitch response in rodents induced by the hallucinogen 2,5-dimethoxy-4-iodoamphetamine: a comprehensive history, a re-evaluation of mechanisms, and its utility as a model. Drug Test Anal 4, 556-576 (2012)).
Data analysis: The number of head twitches over the first 30 minutes was summed (0-15 minutes, 15-30 minutes intervals) and analyzed by non-parametric Kruskal Wallis test with Dunn's multiple comparison tests between groups.

For data set [13], the system named is early growth response protein 2 (egr2). Description: RTqPCR gene expression in mouse left frontal cortex: egr2. To be noted: 60 min treatment + 60 min room air, DMT-d10 5.6 mg/kg s.c., N2O 50% inhaled.
Data set [14] relates to syn1. Briefly: RTqPCR gene expression in mouse left frontal cortex: syn1. The class given is in vivo, mice (C57B16/J). As to conditions: 60 min treatment + 60 min room air, DMT-d10 5.6 mg/kg s.c., N2O 50% inhaled.
For data set [15], the system named is homer1. Description: RTqPCR gene expression in mouse left frontal cortex: homer1. To be noted: 60 min treatment + 60 min room air, DMT-d10 5.6 mg/kg s.c., N2O 50% inhaled. The class given is in vivo, mice (C57B16/J).
The subject of data set [16] is serum/glucocorticoid regulated kinase 1 (sgk1). Description: RTqPCR gene expression in mouse left frontal cortex: sgk1. As to conditions: 60 min treatment + 60 min room air, DMT-d10 5.6 mg/kg s.c., N2O 50% inhaled.
For data set [17], the system named is c-fos. Description: RTqPCR gene expression in mouse left frontal cortex: c-fos. As to conditions: 60 min treatment + 60 min room air, DMT-d10 5.6 mg/kg s.c., N2O 50% inhaled.
Setting [18] is: Inhalation 14.3 (DMT) / 15.5 (DMT-d10) mg/kg.
The mark [19] stands for this setting: IV bolus of DMT (as fumarate salt) 0.05-0.4 mg/kg.
Where [20] appears, read: brain, male rats, IV bolus 1 mg/kg each (Group 4).

T1 sequence (P35363 whole entry): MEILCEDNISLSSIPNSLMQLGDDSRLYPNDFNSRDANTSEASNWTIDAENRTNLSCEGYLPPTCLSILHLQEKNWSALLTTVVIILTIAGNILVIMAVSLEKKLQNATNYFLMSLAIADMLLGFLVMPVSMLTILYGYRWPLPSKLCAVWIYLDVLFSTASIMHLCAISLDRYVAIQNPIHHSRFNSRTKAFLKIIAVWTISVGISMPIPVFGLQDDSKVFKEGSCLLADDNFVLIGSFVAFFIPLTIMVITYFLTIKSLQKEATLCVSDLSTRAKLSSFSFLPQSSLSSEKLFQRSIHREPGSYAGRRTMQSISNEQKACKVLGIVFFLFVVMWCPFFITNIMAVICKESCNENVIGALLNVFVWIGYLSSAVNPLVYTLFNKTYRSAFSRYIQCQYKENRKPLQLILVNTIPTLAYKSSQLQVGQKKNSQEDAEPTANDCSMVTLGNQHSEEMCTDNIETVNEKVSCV

Consider `CN(C)CCc1c[nH]c2ccccc12` [DMT, N,N-dimethyltryptamine], for which, in data set [1], the half-life entry is recorded as “around 15 minutes” and the “time to peak plasma concentrations” value is on record as “approximately 2 minutes”. Moreover, in [2], the “time of highest plasma concentration (first time point taken)” value came to 0.083 h; the “F (bioavailability), inhalation” value is listed as 16.3%; the “mean residence time (MRT) after inhalation compared to IV administration” value is “approximately 5 ×”. Further, the AUC0-1/dose in [2] (setting [18]) stood at 18.2. Further, the AUC0-1/dose in data set [2] (Intravenous 1 mg/kg each) amounted to 112. For the same compound, the AUC0-1/dose in data set [2] (Oral 10 mg/kg each) is recorded as 1.52. In data set [3], the half-life was 5 to 15 min; the “time to be metabolized and cleared from brain, liver, and plasma” value is recorded as at most 1 h. Moreover, in [4], the “hallucinogenic potential as measured by head-twitch responses (HTRs)” value was “sub-hallucinogenic”. For the same compound, the hallucinogenic effect result in data set [5] (0.1 mg/kg IV) is on record as “not hallucinogenic”. Besides, the hallucinogenic effect entry in data set [5] (0.2 and 0.4 mg/kg IV) was “nearly instantaneous onset of visual hallucinatory phenomena”. Further, in [5] (setting [19]), the “time by which psycho-biological effects resolve” value is on record as at most 30 minutes and the “time of peak of psycho-biological effects” value was 120 seconds. Further, in data set [5] (vaporized or inhaled free-base, 40-50 mg), the “duration of effect of vaporized DMT” value is on record as “less than 30 min”. In addition, in [6] (setting [20]), the “Brain AUC0-inf” value is 1070 ng·h/g and the “Brain AUC0-t” value was found to be 1060 ng·h/g. Besides, in [6] (brain, male rats), the “Brain Cmax” value is 3430 ng/g. In addition, the “absolute power in EEG frequency bands” value in [7] is “decreased absolute power in all frequency bands”. The elimination half-life in data set [8] was 12 to 19 min.
`COc1ccc2[nH]cc(CCN(C)C)c2c1` [5-MeO-DMT, 5-methoxy-N,N-dimethyltryptamine]: the elimination half-life in data set [8] was 12 to 19 min.
`[N-]=[N+]=O` [N2O, nitrous oxide]: the “Mean rank diff., total distance travelled” value was −11.40 in data set [9] (minutes 0-15) and −8.000 in data set [9] (minutes 15-30). Moreover, the “bdnf gene expression, percentage change compared to control (Veh/Air), % mean” value in data set [10] was determined as 15.67%. In addition, in data set [11], the “fgf2 gene expression, percentage change compared to control (Veh/Air), % mean” value was 5.24%. Also, in data set [12], the “head twitch responses (HTRs), result in words” value is recorded as “attenuates DMT-d10-induced HTRs”. In addition, the “Mean rank diff., total HTRs” value in [12] (minutes 0-15) is −1.250; in [12] (minutes 15-30) it was 0.000. The “egr2 gene expression, percentage change compared to control (Veh/Air), % mean” value in data set [13] was 38.30%. In addition, in [14], the “syn1 gene expression, percentage change compared to control (Veh/Air), % mean” value came out at 13.38%. In addition, in [15], the “homer1 gene expression, percentage change compared to control (Veh/Air), % mean” value turned out to be 29.35%. Besides, the “sgk1 gene expression, percentage change compared to control (Veh/Air), % mean” value in data set [16] is given as 33.82%. In data set [17], the “c-fos gene expression, percentage change compared to control (Veh/Air), % mean” value is given as 32.29%.
As for `[2H]C([2H])([2H])N(C([2H])([2H])[2H])C([2H])([2H])C([2H])([2H])c1c[nH]c2ccccc12` [DMT-d10], the “distance travelled (locomotor behavior), result in words” value in data set [9] (mice, room air or N2O 50%, minutes 0-15 and 15-30) was “travelled less distance than the vehicle/air group”. Besides, the “Mean rank diff., total distance travelled” value turned out to be 16.50 in data set [9] (minutes 0-15) and 19.30 in data set [9] (minutes 15-30). In [10], the “bdnf gene expression, percentage change compared to control (Veh/Air), % mean” value was −9.25%. For the same compound, the “fgf2 gene expression, percentage change compared to control (Veh/Air), % mean” value in [11] amounted to 3.13%. The “head twitch responses (HTRs), result in words” value in [12] was “modest number of HTRs”. Further, the “Mean rank diff., total HTRs” value is −22.65 in data set [12] (minutes 0-15) and −12.80 in data set [12] (minutes 15-30). Moreover, the “increase of inhalation bioavailability by deuteration” value in data set [2] (DMT-d10 vs. DMT, inhalation, rats) was “approximately 40%”. The “time of highest plasma concentration (first time point taken)” value in [2] was determined as 0.083 h. In addition, in [2], the “F (bioavailability), inhalation” value is 22.6%. In [2], the “mean residence time (MRT) after inhalation compared to IV administration” value is on record as “approximately 5 ×”. Besides, the results for the AUC0-1/dose in [2] (setting [18]), in data set [2] (Intravenous 1 mg/kg each) and in data set [2] (Oral 10 mg/kg each) were 17.0, 75.4 and 0.878, respectively. In addition, in data set [13], the “egr2 gene expression, percentage change compared to control (Veh/Air), % mean” value is recorded as 8.24%. The “syn1 gene expression, percentage change compared to control (Veh/Air), % mean” value in data set [14] is on record as 1.47%. Moreover, the “improvement of brain to plasma (B/P) ratio by deuteration” value in data set [6] (DMT-d10 vs. DMT, IV 1 mg/kg, rats) is “approximately 30%”. Further, in data set [6] (setting [20]), the “Brain AUC0-t” value came out at 931 ng·h/g. Further, the “Brain Cmax” value in data set [6] (brain, male rats) amounted to 1490 ng/g. Also, the “homer1 gene expression, percentage change compared to control (Veh/Air), % mean” value in [15] amounted to 2.44%. Also, the “sgk1 gene expression, percentage change compared to control (Veh/Air), % mean” value in [16] was determined as 15.58%. In [17], the “c-fos gene expression, percentage change compared to control (Veh/Air), % mean” value was 18.57%.

The record behind these values is patent US20260240901A1, “COMBINATION OF NITROUS OXIDE AND 5-HT2A RECEPTOR AGONISTS” (Cybin IRL Limited, priority 2022, published 2026).
